Columns and labels:
[1] = target: Human immunodeficiency virus type 1 reverse transcriptase (Human immunodeficiency virus 1, UniProt Q72547); assay: Inhibition of wild-type HIV-1 Reverse transcriptase.
[2] = test system: Human immunodeficiency virus 1; assay: Antiviral activity against HIV-1 virus.; format: functional; details: read-out: ED50 (the source's name)

Row | Compound | IC50 [1] [µM] | EC50 [2] [µM]
1 | O=C(CC/N=C(\S)Nc1ccc(Cl)cn1)c1c(F)cccc1F | 0.006 | 0.028
2 | O=S(=O)(NCCc1ccccc1)Nc1cncc(Cl)c1 | > 10 | > 100
3 | O=C(CC/N=C(\S)Nc1ccc(Br)cn1)c1ccccc1F | 0.004 | 0.009
4 | O=C(CC/N=C(\S)Nc1ccc(Br)cn1)c1ccc(F)cc1 | 0.047 | 0.3
5 | O=C(CC/N=C(\S)Nc1ccc(Br)cn1)c1cc(F)ccc1F | < 0.025 | 0.067
6 | COc1ccccc1C(=O)CCNC(=S)Nc1ccc(Br)cn1 | 0.003 | 0.076
7 | COc1cccc(C(=O)CC/N=C(\S)Nc2ccc(Br)cn2)c1 | 0.08 | 0.911
8 | CCOc1ccc(F)c(CCNC(=S)Nc2ccc(Br)cn2)c1Cl [THIOUREA, N-(5-BROMO-2-PYRIDINYL)-N'-(2-(2-CHLORO-3-ETHOXY-6-FLUOROPHENYL)ETHYL)-] | – | 0.007
9 | COc1ccccc1CCNC(=S)Nc1nccs1 | – | 0.4
10 | CCOc1ccc(F)c(CCNC(=O)Nc2ccc(Br)cn2)c1Cl | – | 0.05
11 | S=C(NCCc1ccccc1)Nc1ccc(Cl)cn1 | 0.003 | 0.03
12 | N=C(Nc1ccc(Br)cn1)N[C@@H]1C[C@@H]1c1ccccc1 | 0.18 | 1.2
13 | O=C(CCNC(=S)Nc1ccc(Br)cn1)c1ccccc1Cl | 0.01 | 0.1
14 | Fc1cccc(F)c1CC/N=C(\S)Nc1ccc(Br)cn1 | – | 0.01
15 | O=C(CCNC(=S)Nc1ccc(Br)cn1)c1c(F)cccc1F | 0.003 | 0.05
16 | N#CN/C(=N\c1ccc(Cl)cn1)NCCc1ccccc1 | > 10 | > 100
17 | O=C(CCNC(=S)Nc1ccc(Br)cn1)c1ccccc1 | < 0.027 | 0.036
18 | O=C(NCCC(=O)c1ccccc1F)Nc1ccc(Br)cn1 | 0.054 | 0.201
19 | COc1ccccc1CCN=C(NC#N)Nc1nccs1 | > 10 | > 100
20 | S=C(Nc1ccc(Br)cn1)N[C@@H]1C[C@@H]1c1ccccc1 | 0.008 | 0.02
21 | CCOc1ccc(F)c(CC/N=C(\N)Nc2ccc(Br)cn2)c1Cl | 0.4 | 1
